Among the test systems are 786-0 renal; BT-549 breast; EKVX NSCLC; KM12 colon; M14 melanoma; MALME-3M melanoma; MDA-MB-435; NCI-H226 lung; NCI/ADR-RES ovarian; SF-539 CNS.
Assay in all cases: growth of human tumour cells (NCI), 48 h

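Protocol summary: plate cells (96-well), add compound at 5 concentrations, incubate 48 h, interpolate endpoints linearly. Definition used: TGI = concentration required for complete inhibition of growth.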

As to `S=c1[nH]nc(Cn2c3ccc(Br)cc3c3nc4ccccc4nc32)n1C1CCCCC1`, the TGI is 54.8 µM with 786-0 renal; more than 83 µM in the assay with BT-549 breast; more than 100 µM with EKVX NSCLC; more than 100 µM with KM12 colon; more than 100 µM in the assay with M14 melanoma; 72.7 µM in the assay with MALME-3M melanoma. Besides, the TGI in the assay with MDA-MB-435 was more than 100 µM; with NCI-H226 lung, more than 76.6 µM; in the assay on NCI/ADR-RES ovarian it was more than 92 µM; in the assay on SF-539 CNS, 42.1 µM.
With `CNC(=S)NNc1ncnc2c1c(-c1ccc(Cl)cc1)cn2-c1ccc(C)cc1`, the TGI in the assay with 786-0 renal was 24.2 µM; in the assay on BT-549 breast, 29.2 µM; in the assay on EKVX NSCLC it was 28.8 µM; with KM12 colon, 22 µM; in the assay with M14 melanoma, 26.5 µM; with MALME-3M melanoma, 33 µM. Further, the TGI came out at 23.6 µM in the assay on MDA-MB-435, 57.5 µM in the assay with NCI-H226 lung, 34.4 µM in the assay with NCI/ADR-RES ovarian and 29.8 µM with SF-539 CNS.
On to `CCCCCCCCCCCCNC(=O)CCC(NC(=O)c1ccc(N(C)Cc2cnc3nc(N)nc(N)c3n2)cc1)C(=O)NCCCCCCCCCCCC` (stereo not given), for which the TGI with 786-0 renal, in the assay with BT-549 breast, in the assay with EKVX NSCLC, in the assay with KM12 colon, in the assay on M14 melanoma and in the assay on MALME-3M melanoma was more than 100 µM throughout. The TGI with MDA-MB-435, with NCI-H226 lung, with NCI/ADR-RES ovarian and in the assay on SF-539 CNS was more than 100 µM in each case.
Regarding `COc1cc(OC)cc(Oc2nc3cc(F)c(F)cc3nc2-c2ccccc2)c1`, the TGI with 786-0 renal, in the assay with BT-549 breast, in the assay with EKVX NSCLC, with KM12 colon, with M14 melanoma and with MALME-3M melanoma was more than 100 µM each time. For the same molecule, the TGI in the assay with MDA-MB-435, with NCI-H226 lung, with NCI/ADR-RES ovarian and in the assay on SF-539 CNS was more than 100 µM each time.
For the molecule `C[N+]1(CCN=C=NC2CCCCC2)CCOCC1`, the TGI in the assay on 786-0 renal, in the assay on BT-549 breast, in the assay on EKVX NSCLC, in the assay with KM12 colon, in the assay with M14 melanoma and in the assay on MALME-3M melanoma was more than 100 µM throughout. Also, the TGI in the assay with MDA-MB-435, in the assay with NCI-H226 lung, with NCI/ADR-RES ovarian and in the assay on SF-539 CNS was more than 100 µM in each case.
For the molecule `Cc1cc(S(=O)(=O)Nc2n[nH]c(Nc3ccccc3)n2)c(SCC(=O)O)cc1Cl`, the TGI with 786-0 renal, in the assay on BT-549 breast, with EKVX NSCLC, in the assay on KM12 colon, in the assay with M14 melanoma and in the assay on MALME-3M melanoma was more than 100 µM in each case. In addition, the TGI with MDA-MB-435, in the assay with NCI-H226 lung, in the assay on NCI/ADR-RES ovarian and in the assay on SF-539 CNS was more than 100 µM throughout.
As to `COc1cc2c3c(cc(Cl)nc3c1OC)C(=O)C(=O)N2`, the TGI in the assay with 786-0 renal is 13.4 µM; with BT-549 breast, 29.8 µM; with EKVX NSCLC it was 11.9 µM; in the assay with KM12 colon it was 30.3 µM; in the assay with M14 melanoma, 29.3 µM; in the assay on MALME-3M melanoma, 3.82 µM. In addition, the TGI in the assay with MDA-MB-435 was found to be 3.37 µM; in the assay with NCI-H226 lung it was 41.5 µM; in the assay with NCI/ADR-RES ovarian it was 53.1 µM; in the assay on SF-539 CNS, 36.4 µM.
As to `CCCCCCCCCCCCOCCOCCOCCOCCOCCOCC(=O)NC(Cc1ccccc1)C(=O)Oc1ccc([N+](=O)[O-])cc1` (stereo not given), the TGI in the assay with 786-0 renal, in the assay with BT-549 breast, in the assay with EKVX NSCLC, in the assay on KM12 colon, in the assay on M14 melanoma and in the assay with MALME-3M melanoma was more than 100 µM each time. In addition, the TGI with MDA-MB-435, in the assay on NCI-H226 lung, in the assay on NCI/ADR-RES ovarian and in the assay on SF-539 CNS was more than 100 µM throughout.
Turning to `N#Cc1nc(C2CCC(=O)O2)oc1N` (stereo not given), the TGI in the assay with 786-0 renal, with BT-549 breast, in the assay on EKVX NSCLC, in the assay with KM12 colon, in the assay with M14 melanoma and with MALME-3M melanoma was more than 100 µM throughout. For the same molecule, the TGI in the assay with MDA-MB-435, in the assay on NCI-H226 lung, with NCI/ADR-RES ovarian and with SF-539 CNS was more than 100 µM throughout.
Turning to `C=C1C[C@@H]2CC[C@@]34C[C@H]5O[C@H]6[C@@H](O3)[C@H]3O[C@H](CC[C@@H]3O[C@H]6[C@H]5O4)CC(=O)C[C@@H]3[C@@H](OC)[C@@H](C[C@H](O)CN)O[C@H]3C[C@H]3O[C@@H](CC[C@@H]1O2)C[C@@H](C)C3=C`, the TGI was more than 1 µM in the assay with 786-0 renal; more than 1 µM with BT-549 breast; 0.273 µM in the assay on EKVX NSCLC; 0.0104 µM in the assay with KM12 colon; 0.0307 µM in the assay with M14 melanoma; more than 1 µM in the assay with MALME-3M melanoma. Further, the TGI with MDA-MB-435 is 0.000274 µM; in the assay on NCI-H226 lung it was 0.00433 µM; with NCI/ADR-RES ovarian, more than 1 µM; in the assay on SF-539 CNS, 0.00215 µM.
For `O=C1CS/C(=N/N=C/c2cn(Cc3ccc(Cl)cc3Cl)c3ccccc23)N1`, the TGI in the assay on 786-0 renal is 53.2 µM; in the assay on BT-549 breast it was more than 100 µM; in the assay on EKVX NSCLC it was 48.5 µM; in the assay with KM12 colon, more than 100 µM; in the assay with M14 melanoma, more than 100 µM; in the assay with MALME-3M melanoma, more than 100 µM. In addition, the TGI was more than 100 µM in the assay with MDA-MB-435, more than 100 µM in the assay with NCI-H226 lung, more than 100 µM in the assay on NCI/ADR-RES ovarian and 41 µM with SF-539 CNS.
Turning to `O=C1CC(c2ccccc2Cl)C2(C(=O)NC(=O)NC2=O)C(c2ccccc2Cl)C1` (stereo not given), the TGI in the assay with 786-0 renal is more than 100 µM; in the assay with BT-549 breast, more than 100 µM; in the assay with EKVX NSCLC it was more than 100 µM; in the assay on KM12 colon, more than 100 µM; in the assay with M14 melanoma it was more than 100 µM; with MALME-3M melanoma, 72.4 µM. The TGI in the assay on MDA-MB-435, with NCI-H226 lung, in the assay with NCI/ADR-RES ovarian and in the assay on SF-539 CNS was more than 100 µM each time.
As for `Cc1cc(OCc2nnc3sc(NC(=O)c4ccccc4)nn23)ccc1Cl`, the TGI in the assay on 786-0 renal was more than 100 µM; in the assay on BT-549 breast it was more than 100 µM; in the assay on EKVX NSCLC it was 89.7 µM; with KM12 colon, 52.6 µM; in the assay on M14 melanoma it was more than 100 µM; in the assay on MALME-3M melanoma, 42.2 µM. Besides, the TGI was 50.2 µM in the assay on MDA-MB-435, more than 100 µM in the assay with NCI-H226 lung, more than 100 µM in the assay with NCI/ADR-RES ovarian and more than 100 µM in the assay on SF-539 CNS.
For `Cc1ccc(S(=O)(=O)c2c(O)c3ccc(O)c(C)c3oc2=O)cc1`, the TGI in the assay with 786-0 renal, in the assay with BT-549 breast, in the assay on EKVX NSCLC, with KM12 colon, with M14 melanoma and in the assay with MALME-3M melanoma was more than 100 µM in each case. For the same molecule, the TGI in the assay with MDA-MB-435, in the assay on NCI-H226 lung, in the assay with NCI/ADR-RES ovarian and in the assay with SF-539 CNS was more than 100 µM throughout.
`O=C1c2cccnc2S(=O)(=O)N1c1ccc([N+](=O)[O-])cc1`: the TGI in the assay with 786-0 renal, in the assay on BT-549 breast, in the assay on EKVX NSCLC, with KM12 colon, in the assay with M14 melanoma and with MALME-3M melanoma was more than 100 µM throughout. The TGI with MDA-MB-435, with NCI-H226 lung, in the assay on NCI/ADR-RES ovarian and with SF-539 CNS was more than 100 µM throughout.
In the case of `CC1(C)N=C(N)N=C(N)N1c1cccc(OCc2cccc(N)c2)c1`, the TGI in the assay with 786-0 renal, in the assay on BT-549 breast, in the assay on EKVX NSCLC, in the assay with KM12 colon, with M14 melanoma and with MALME-3M melanoma was more than 100 µM each time. For the same molecule, the TGI with MDA-MB-435 is more than 100 µM; in the assay on NCI-H226 lung, more than 100 µM; with NCI/ADR-RES ovarian, more than 100 µM; in the assay with SF-539 CNS it was more than 80.4 µM.
For the molecule `O=C1N/N=C\c2ccc(cc2)OCc2cccc(n2)COc2ccc(cc2)/C=N\NC1=O`, the TGI in the assay with 786-0 renal, in the assay with BT-549 breast, with EKVX NSCLC, in the assay on KM12 colon, in the assay on M14 melanoma and in the assay on MALME-3M melanoma was more than 25 µM each time. Further, the TGI in the assay with MDA-MB-435, in the assay with NCI-H226 lung, in the assay on NCI/ADR-RES ovarian and in the assay on SF-539 CNS was more than 25 µM each time.
Regarding `Cc1cccc(NS(=O)(=O)c2ccc(N=Nc3c(O)c(C(=O)O)cc4ccccc34)cc2)n1`, the TGI in the assay on 786-0 renal, in the assay on BT-549 breast, in the assay with EKVX NSCLC, with KM12 colon, in the assay on M14 melanoma and in the assay on MALME-3M melanoma was more than 100 µM each time. The TGI in the assay with MDA-MB-435, in the assay with NCI-H226 lung, in the assay on NCI/ADR-RES ovarian and in the assay with SF-539 CNS was more than 100 µM in each case.
As to `O=C(OC12CC3CC(CC(C3)C1)C2)c1ccc(NCc2cc(O)ccc2O)cc1`, the TGI with 786-0 renal came out at 2.86 µM; with BT-549 breast it was 1.71 µM; in the assay on EKVX NSCLC it was 3.37 µM; in the assay with KM12 colon, 5.19 µM; in the assay on M14 melanoma, 5.18 µM; in the assay on MALME-3M melanoma, 1.67 µM. The TGI with MDA-MB-435 amounted to 4.45 µM; in the assay with NCI-H226 lung, 6.2 µM; with NCI/ADR-RES ovarian, 2.76 µM; in the assay with SF-539 CNS, 1.31 µM.

For the origin of these results see PubChem BioAssay (NCI).
